According to patent publication US6288091A, “Antiherpes virus compounds and methods for their preparation and use” (Boehringer Ingelheim Ltd., priority 1999, dated 2001):

Tests used:
[1] = molecular target: T1, HSV-1 helicase-primase (Human herpesvirus 1, UniProt P10189+P10236); assay: HSV-1 DNA-dependent ATPase assay (inhibition of HSV-1 helicase-primase); format: biochemical
T1 construct: made in house; host or cells: Sf21 insect cells triply infected with recombinant baculoviruses (UL5, UL8, UL52)
T1 sequence (P10192 whole entry): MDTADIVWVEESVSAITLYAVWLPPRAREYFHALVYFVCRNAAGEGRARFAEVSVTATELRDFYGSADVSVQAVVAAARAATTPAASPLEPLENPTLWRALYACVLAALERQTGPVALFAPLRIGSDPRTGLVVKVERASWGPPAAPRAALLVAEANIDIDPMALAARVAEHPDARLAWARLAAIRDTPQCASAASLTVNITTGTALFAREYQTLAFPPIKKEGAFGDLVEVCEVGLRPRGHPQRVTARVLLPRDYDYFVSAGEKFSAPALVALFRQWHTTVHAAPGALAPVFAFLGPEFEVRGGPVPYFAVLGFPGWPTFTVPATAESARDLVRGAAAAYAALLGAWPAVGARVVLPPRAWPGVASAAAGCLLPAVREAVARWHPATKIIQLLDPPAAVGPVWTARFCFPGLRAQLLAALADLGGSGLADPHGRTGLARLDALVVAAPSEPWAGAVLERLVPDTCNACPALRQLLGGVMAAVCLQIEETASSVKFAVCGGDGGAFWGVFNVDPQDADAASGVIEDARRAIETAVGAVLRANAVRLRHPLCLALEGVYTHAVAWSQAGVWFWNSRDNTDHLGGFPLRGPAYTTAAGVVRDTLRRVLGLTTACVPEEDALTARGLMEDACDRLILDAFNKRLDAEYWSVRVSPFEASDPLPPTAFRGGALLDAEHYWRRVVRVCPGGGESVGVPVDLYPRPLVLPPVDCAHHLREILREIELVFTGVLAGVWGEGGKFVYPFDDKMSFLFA
T1 sequence (P10236 whole entry): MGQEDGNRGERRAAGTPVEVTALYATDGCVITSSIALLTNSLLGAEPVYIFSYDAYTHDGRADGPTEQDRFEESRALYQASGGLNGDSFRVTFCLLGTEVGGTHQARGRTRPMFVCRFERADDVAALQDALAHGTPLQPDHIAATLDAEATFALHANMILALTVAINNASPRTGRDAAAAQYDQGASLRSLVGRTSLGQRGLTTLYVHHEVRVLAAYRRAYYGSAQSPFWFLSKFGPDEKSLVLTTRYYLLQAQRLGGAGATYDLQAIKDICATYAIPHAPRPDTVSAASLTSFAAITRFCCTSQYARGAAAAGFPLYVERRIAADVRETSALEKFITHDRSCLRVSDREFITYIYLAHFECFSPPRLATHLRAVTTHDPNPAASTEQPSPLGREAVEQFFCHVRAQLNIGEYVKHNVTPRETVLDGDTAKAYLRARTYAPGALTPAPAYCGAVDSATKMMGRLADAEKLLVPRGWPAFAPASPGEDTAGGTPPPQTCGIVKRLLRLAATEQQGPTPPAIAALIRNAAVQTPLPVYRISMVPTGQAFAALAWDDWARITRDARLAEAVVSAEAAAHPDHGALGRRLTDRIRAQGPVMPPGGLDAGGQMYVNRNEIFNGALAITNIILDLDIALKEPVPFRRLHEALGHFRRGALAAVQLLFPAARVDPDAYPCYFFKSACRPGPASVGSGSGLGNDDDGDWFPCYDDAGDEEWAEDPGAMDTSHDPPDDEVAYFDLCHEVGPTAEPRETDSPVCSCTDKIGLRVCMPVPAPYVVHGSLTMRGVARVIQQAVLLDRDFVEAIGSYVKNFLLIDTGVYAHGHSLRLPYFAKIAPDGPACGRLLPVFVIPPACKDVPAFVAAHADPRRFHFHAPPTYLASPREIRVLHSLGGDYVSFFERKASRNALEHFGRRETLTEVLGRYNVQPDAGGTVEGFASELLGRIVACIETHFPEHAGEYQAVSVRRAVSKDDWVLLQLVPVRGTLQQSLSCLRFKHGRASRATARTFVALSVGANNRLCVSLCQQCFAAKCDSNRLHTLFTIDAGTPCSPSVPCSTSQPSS
T1 sequence (P10189 whole entry): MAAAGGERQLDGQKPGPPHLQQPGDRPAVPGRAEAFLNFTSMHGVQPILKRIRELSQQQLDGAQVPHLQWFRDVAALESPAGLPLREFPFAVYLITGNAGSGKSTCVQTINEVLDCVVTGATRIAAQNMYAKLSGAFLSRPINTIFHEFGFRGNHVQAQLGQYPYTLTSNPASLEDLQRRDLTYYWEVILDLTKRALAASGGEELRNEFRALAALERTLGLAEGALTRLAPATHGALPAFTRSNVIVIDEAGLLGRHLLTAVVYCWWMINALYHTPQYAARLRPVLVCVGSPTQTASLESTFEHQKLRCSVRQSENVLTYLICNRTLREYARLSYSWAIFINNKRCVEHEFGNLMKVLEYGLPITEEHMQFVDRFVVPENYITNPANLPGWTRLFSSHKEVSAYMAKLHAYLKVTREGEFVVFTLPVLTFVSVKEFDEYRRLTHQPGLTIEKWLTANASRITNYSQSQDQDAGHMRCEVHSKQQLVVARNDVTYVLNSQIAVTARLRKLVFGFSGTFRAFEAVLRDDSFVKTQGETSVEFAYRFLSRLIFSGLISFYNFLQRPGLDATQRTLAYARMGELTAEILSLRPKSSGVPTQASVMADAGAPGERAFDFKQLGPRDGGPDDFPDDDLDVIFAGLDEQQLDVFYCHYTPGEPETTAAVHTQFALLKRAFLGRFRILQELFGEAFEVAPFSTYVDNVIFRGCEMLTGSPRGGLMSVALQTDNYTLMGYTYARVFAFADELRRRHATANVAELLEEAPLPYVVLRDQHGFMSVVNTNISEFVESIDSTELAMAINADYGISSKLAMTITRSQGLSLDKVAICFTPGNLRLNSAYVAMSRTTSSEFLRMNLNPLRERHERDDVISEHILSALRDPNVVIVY
How it was run: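 Holoenzyme (UL5/UL8/UL52) expressed in baculovirus-infected Sf21 cells and purified, used at 3 μg/mL with 4 mM ATP and 25 μM primed M13 ssDNA in HEPES pH 7.5, 5.5 mM MgCl2, 3.3% DMSO. Incubated 20 min at 34°. Released phosphate read by malachite green at 650 nm, and activity taken from net absorbance with versus without inhibitor.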

[2] = system: HCMV (strain AD169); assay: Inhibition of HCMV replication, ELISA assay (Hs-68 cells); format: cell-based, Human Cytomegalovirus (HCMV); conditions: read-out: ELISA CMV EC50
Protocol: (§1) C) Inhibition of Human Cytomegalovirus (HCMV) Replication
(§2) The effect of compounds on the replication of HCMV has been measured by using an ELISA-based assay (ELISA) and a plaque reduction assay (PRA).
Hs-68 cells (ATCC # CRL 1635) were seeded in 96 well microtiter plates at 10,000 cells/well in 100 μL of DMEM medium (Gibco Canada Inc.) supplemented with 10% fetal bovine serum (FBS, Gibco Canada Inc.). The plates were incubated for 3 days at 37° to allow the cells to reach 80-90% confluency prior to the assay.
The medium was removed from wells by aspiration. The cells then were infected at a multiplicity of infection (MOI) of 0.01 PFU/cell with 50 μL of HCMV (strain AD169, ATCC VR-538) in DMEM medium supplemented with 5% heat inactivated FBS (assay medium). The virus was allowed to adsorb to cells for 2 h at 37°. Following viral adsorption, the medium was removed from the wells by aspiration. The cells were washed twice with 200 μL of assay medium to remove unabsorbed virus. The cells were then incubated with or without 100 μL of appropriate concentrations of test reagent in assay medium. After 8 days of incubation at 37°, the extent of viral replication was determined by an ELISA assay which detects the late structural protein p28 of HCMV.
Eight days after infection, the medium was aspirated from the wells. Non-specific binding sites were blocked by adding 200 μL of phosphate buffered saline containing 1% (w/v) bovine serum albumin (blocking buffer) to each well and incubating the plates for 30 min at room temperature. After removal of the blocking buffer by aspiration, the cells were fixed with 100 μL of cold ethanol-acetone solution (95:5) per well. The plates were placed at -20° for 30 min. The plates were washed 4 times with phosphate buffered saline containing 0.05% (v/v) polyoxyethylene sorbitan monolaurate (Tween®). Thereafter, 100 μL of mAb UL99 (Advanced Biotechnologies Inc., #13-130-100) recognizing HCMV protein p28 was added to each wells and plates were incubated for 2 h at room temperature. The plates were washed four times with 200 μL of the above-noted phosphate buffered saline/Tween-20® solution. The cells were then incubated with 100 μL of sheep anti-mouse IgGγ horseradish peroxidase conjugated for 2 h at room temperature. The plates were then washed four times with 200 μL of above-noted phosphate buffered saline/Tween-20® solution. Thereafter, 100 μL of ortho phenylenediamine dihydrochloride (OPD, Gibco Canada Inc.) solution was added to each well and the plates were agitated on a microplate shaker for 30 min in the dark. Color development was monitored at 450 nm using a microplate spectrophotometer.
The SAS program was used to calculate the % inhibition of viral replication and to generate EC50 values.
The EC50 values obtained according to this assay method for certain thiazolylphenyl derivatives of this invention are listed in the following tables under the heading ELISA CMV.

[3] = system: HSV-1 strain F or KOS; assay: Inhibition of herpes simplex virus (HSV-1) replication in cell culture (BHK-21 cells, glycoprotein C ELISA); format: cell-based
How it was run: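 BHK-21 clone 13 cells infected with HSV-1 F or KOS at MOI 0.05 PFU/cell for 1 h at 37°, washed, then treated with compound in α-MEM/2% FBS for 24 h. Late glycoprotein C quantified by ELISA (mAb C11, HRP/OPD, 450 nm); EC50 from % inhibition.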

[4] = system: HCMV (strain AD169); assay: Inhibition of HCMV replication, plaque reduction assay (PRA, Hs-68 cells); format: cell-based, Human Cytomegalovirus (HCMV); conditions: read-out: PRA CMV EC50
Protocol: as §1, §2
Hs-68 cells (ATCC # CRL 1635) were seeded in 12-well plates at 83,000 cells/well in 1 mL of DMEM medium (Gibco Canada Inc.) supplemented with 10% fetal bovine serum (FBS, Gibco Canada Inc.). The plates were incubated for 3 days at 37° to allow the cells to reach 80-90% confluency prior to the assay.
The medium was removed from the cells by aspiration. The cells were then infected with approximately 50 PFU of HCMV (strain AD169, ATCC VR-538) in DMEM medium supplemented with 5% inactivated FBS (assay medium). The virus was allowed to adsorb to cells for 2 h at 37°. Following viral adsorption, the medium was removed from the wells by aspiration. The cells were then incubated with or without 1 mL of appropriate concentrations of test reagent in assay medium. After 4 days of incubation at 37°, the medium was exchanged with fresh medium containing test compound and 4 days later the cells were fixed with 1% aqueous formaldehyde and stained with a 2% crystal violet solution in 20% ethanol in water. Microscopic plaques were counted using a stereomicroscope. Drug effects were calculated as a percent reduction in the number of plaques in the presence of each drug concentration compared to the number observed in the absence of drug. Ganciclovir was used as a positive control in all experiments.
The EC50 values obtained according to this assay for certain thiazolyl derivatives of this invention are listed in the following tables under the heading PRA CMV.

[5] = Human betaherpesvirus 5, AD169, Hs68, Group 1 Table 3 entries
[6] = Human alphaherpesvirus 1, BHK-21, Group 1 Table 3 entries
[7] = Human betaherpesvirus 5, AD169, Hs68, Group 1 Table 5 entries
[8] = Human alphaherpesvirus 1, BHK-21, Group 1 Table 5 entries
[9] = Human betaherpesvirus 5, AD169, Hs68, Group 1 Table 1 entries
[10] = Human alphaherpesvirus 1, BHK-21, Group 1 Table 1 entries

Compound: Nc1nc(-c2ccc(NC(=O)NN3CCCCC3)cc2)cs1 [Example 27]
- IC50 ([1]; Group 2 Table 1 entries): 50 µM
- EC50 ([2]; Human betaherpesvirus 5, AD169, Hs68, Group 2 Table 1 entries): 15.4 µM
- EC50 ([3]; Human alphaherpesvirus 1, BHK-21, Group 2 Table 1 entries): 15.7 µM

Compound: CN(C)c1nc(-c2ccc(NC(=O)CN(Cc3ccccc3)C(=O)OC(C)(C)C)cc2)cs1 [Example 16]
- IC50 ([1]; Group 1 Table 3 entries): > 50 µM
- EC50 [2, 5]: 4.8 µM
- EC50 [3, 6]: 0.009 µM

Compound: CNc1nc(-c2ccc(NC(=O)CN(Cc3ccccc3)C(=O)C3CCCCC3)cc2)cs1 [Example 8]
- IC50 ([1]; Group 1 Table 3 entries): 0.05 µM
- EC50 [2, 5]: 9 µM
- EC50 [3, 6]: 0.002 µM

Compound: CC(C)(C)OC(=O)N[C@@H](Cc1cccnc1)C(=O)Nc1ccc(-c2csc(N)n2)cc1 [Example 26]
- IC50 ([1]; Group 1 Table 5 entries): 0.13 µM
- EC50 [2, 7]: 19.9 µM
- EC50 [3, 8]: 0.043 µM

Compound: CC(=O)Nc1nc(-c2ccc(NC(=O)CN(Cc3ccccc3)C(=O)c3ccncc3)cc2)cs1 [Example 19]
- IC50 ([1]; Group 1 Table 3 entries): > 50 µM
- EC50 [2, 5]: 28 µM
- EC50 [3, 6]: 9 µM

Compound: CNc1nc(-c2ccc(NC(=O)CN(Cc3ccccc3)C(=O)OC(C)(C)C)cc2)cs1 [Example 10]
- IC50 ([1]; Group 1 Table 3 entries): 0.31 µM
- EC50 [2, 5]: 1.1 µM
- EC50 [3, 6]: 0.008 µM

Compound: CN(C(=O)CN(Cc1ccccc1)C(=O)c1ccncc1)c1ccc(-c2csc(N)n2)cc1 [Example 2]
- IC50 ([1]; Group 1 Table 3 entries): 1.5 µM
- EC50 [2, 5]: 78 µM
- EC50 [3, 6]: 0.34 µM

Compound: C[C@@H](NCc1ccccc1)C(=O)Nc1ccc(-c2csc(N)n2)cc1 [Example 13]
- IC50 ([1]; Group 1 Table 5 entries): 2 µM
- EC50 [2, 7]: 14 µM
- EC50 [3, 8]: 2 µM

Compound: Nc1nc(-c2ccc(NC(=O)CNCCc3ccccc3)cc2)cs1 [Example 2]
- IC50 ([1]; Group 1 Table 1 entries): 4.7 µM
- EC50 [2, 9]: 3.1 µM
- EC50 [3, 10]: 6 µM

Compound: Nc1nc(-c2ccc(NC(=O)CN(Cc3ccncc3)C(=O)c3ccc(F)cc3)cc2)cs1 [Example 73]
- IC50 ([1]; Group 1 Table 1 entries): 0.088 µM
- EC50 [2, 9]: 12.6 µM
- EC50 [3, 10]: 0.017 µM

Compound: C[C@H](C(=O)Nc1ccc(-c2csc(N)n2)cc1)N(Cc1ccccc1)C(=O)OC(C)(C)C [Example 17]
- IC50 ([1]; Group 1 Table 5 entries): 0.11 µM
- EC50 [2, 7]: 7.6 µM
- EC50 [3, 8]: 0.055 µM

Compound: Nc1nc(CC(=O)N(CC(=O)Nc2ccc(-c3csc(N)n3)cc2)Cc2ccccc2)cs1 [Example 119]
- IC50 ([1]; Group 1 Table 1 entries): 0.68 µM
- EC50 [2, 9]: 25 µM

Compound: CN1CCC(C(=O)N(CC(=O)Nc2ccc(-c3csc(N)n3)cc2)Cc2ccccc2)CC1 [Example 123]
- IC50 ([1]; Group 1 Table 1 entries): > 50 µM
- EC50 [2, 9]: 41 µM

Compound: Nc1nc(-c2ccc(NC(=O)CNC(=O)c3ccccn3)cc2)cs1 [Example 19]
- IC50 ([1]; Group 1 Table 1 entries): 13 µM
- EC50 [4, 9]: 20 µM
- EC50 [3, 10]: 4.5 µM

Compound: Nc1nc(-c2ccc(NC(=O)[C@@H]3CCCN3Cc3ccccc3)cc2)cs1 [Example 7]
- EC50 ([2]; Human betaherpesvirus 5, AD169, Hs68, Group 1 Table 6 entries): > 33 µM
- EC50 ([3]; Human alphaherpesvirus 1, BHK-21, Group 1 Table 6 entries): 1.1 µM

Compound: Nc1nc(-c2ccc(NC(=O)[C@@H](Cc3ccccc3)NC(=O)C3CCCCC3)cc2)cs1 [Example 2]
- EC50 [2, 7]: 52 µM
- EC50 [3, 8]: 0.17 µM

Compound: CN(C(=O)CNCc1ccccc1)c1ccc(-c2csc(N)n2)cc1 [Example 3]
- IC50 ([1]; Group 1 Table 3 entries): 13 µM
- EC50 [4, 5]: 80 µM
- EC50 [3, 6]: 4 µM
